Source: publication PMC5892879, “Structures of the Mycobacterium tuberculosis GlpX protein (class II fructose-1,6-bisphosphatase): implications for the active oligomeric state, catalytic mechanism and citrate inhibition” (Acta Crystallographica. Section D, Structural Biology, 2018)
Several values for one entry are separate records, joined by “and”; a condition that tells them apart may be missing. Equal values may be shown once. Entries after “also recorded” stand apart in the source; their conditions may differ. Read-outs that look alike come from different tables or passages of the source.

What was measured:
MtFBPaseII = target: T1, MtFBPaseII (Mycobacterium tuberculosis, UniProt P9WN21); experiment: FBPase activity of wild-type MtFBPaseII, malachite green assay; assay type: biochemical; conditions: for IC50: wild-type MtFBPaseII, malachite green assay, fit of triplicate data, standard error reported; for Effect on MtFBPaseII activity (in words): TCA cycle intermediates tested for inhibitory activity
T1 construct: His-tag (N); made in house
Protocol: The FBPase activity of wild-type MtFBPaseII was measured using the malachite green assay (Bondoc et al., 2017[▸]) in the presence of α-ketoglutarate, citrate, isocitrate, malate, malonate and oxaloacetate. Compounds were tested in triplicate at concentrations of 5000, 3000, 2500, 1300, 630, 310 and 160 µM with positive (no compound) and negative (no enzyme) controls in parallel. Fitting was performed with GraphPad Prism (v.7.0b; GraphPad Software, La Jolla, California, USA). The coupled assay (Bondoc et al., 2017[▸]) was used to obtain kinetic data, which were fitted to a nonlinear Michaelis–Menten equation.

EcFBPaseI = tested on: EcFBPaseI; set-up: method as in Hines et al., 2007; conditions: in the presence of 5 µM AMP, ref Hines et al., 2007; cited from earlier work
[1] = IC50 values of compounds against MtFBPaseII
[2] = read-out: IC50 values of compounds against MtFBPaseII

T1 sequence (P9WN21 whole entry): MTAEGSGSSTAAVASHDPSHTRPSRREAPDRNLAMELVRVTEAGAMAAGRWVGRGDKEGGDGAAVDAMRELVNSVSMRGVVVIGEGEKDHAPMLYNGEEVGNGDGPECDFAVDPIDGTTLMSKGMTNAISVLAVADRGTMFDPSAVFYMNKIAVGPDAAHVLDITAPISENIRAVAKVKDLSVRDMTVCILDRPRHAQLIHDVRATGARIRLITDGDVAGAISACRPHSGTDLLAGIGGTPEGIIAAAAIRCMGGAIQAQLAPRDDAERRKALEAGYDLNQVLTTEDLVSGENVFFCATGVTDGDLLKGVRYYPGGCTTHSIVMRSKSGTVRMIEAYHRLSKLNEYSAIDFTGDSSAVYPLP

## O=C(O)CC(O)(CC(=O)O)C(=O)O [Citrate]
MtFBPaseII; [1]
  IC50: ~2 mM and 2 mM
EcFBPaseI
  Concentration range resulting in activation of the enzyme: 0.5 to 5 mM

## O=C(O)CC(C(=O)O)C(O)C(=O)O (centres unmarked) [Isocitrate]
MtFBPaseII
  Effect on MtFBPaseII activity (in words): no effect
MtFBPaseII; up to a concentration of 5 mM
  Inhibition of MtFBPaseII: did not inhibit; also recorded: did not have any measureable activity

## O=C(O)CC(O)C(=O)O (centres unmarked) [Malate, malate]
MtFBPaseII; [1]
  IC50: 3.3 ± 0.1 mM

## O=C(O)CC(=O)O [Malonate, malonate]
MtFBPaseII; MtFBPaseII, Fig. 4
  Concentration with a weak effect on the activity of the enzyme: 3 to 4 mM
MtFBPaseII; [2]
  IC50: 3.2 ± 0.1 mM

## O=C(O)CC(=O)C(=O)O [Oxaloacetate]
MtFBPaseII; [1]
  IC50: 6.4 ± 0.5 mM
MtFBPaseII
  Effect on MtFBPaseII activity (in words): limited effect

## C=C(OP(=O)(O)O)C(=O)O [PEP, phosphoenolpyruvate]
EcFBPaseI
  Concentration range resulting in activation of the enzyme: 0.5 to 5 mM

## O=C(O)CCC(=O)C(=O)O [α-Ketoglutarate, α-ketoglutarate]
MtFBPaseII; [2]
  IC50: 3.1 ± 0.2 mM
